For test [1], the target named is T1, Protein farnesyltransferase (Bos taurus, UniProt P29702+P49355). Kind of test: Inhibition of bovine farnesyltransferase. The test is classed as protein-complex assay.
For test [2], the target named is T2, Geranylgeranyl transferase type I (Bos taurus, UniProt P29702+Q5EAD5). Description: Inhibition of bovine geranylgeranyl transferase. In kind it is protein-complex assay.
Test [3] has as its target Protein farnesyltransferase (Mus musculus, UniProt Q61239+Q8K2I1). Description: Inhibition of H-ras processing in transformed NIH3T3 cells. In kind it is functional, cell-based.
The target in test [4] is T3, Protein farnesyltransferase (Mus musculus) (UniProt Q61239+Q8K2I1). Kind of test: (§1) Percent inhibition of H-ras processing in transformed NIH3T3 cells at 100 nM. In kind it is functional, cell-based.
Test [5] concerns the target T3, Protein farnesyltransferase (Mus musculus). Kind of test: Percent inhibition of H-ras processing in transformed NIH3T3 cells at 1000 nM. In kind it is functional, cell-based.
For test [6] the target is unchanged. The description is as §1. In kind it is functional, cell-based. This is another data set of the same source.
The target in test [7] is T2, Geranylgeranyl transferase type I. Kind of test: Inhibition of bovine Geranylgeranyltransferase. The test is classed as protein-complex assay.
The target in test [8] is T1, Protein farnesyltransferase. Kind of test: Inhibition of bovine Farnesyltransferase. The test is classed as protein-complex assay.

pEC50, pIC50: −log10 of the molar value.

This note sets out measurements from ChEMBL document CHEMBL1143527, “Design, synthesis, and activity of achiral analogs of 2-quinolones and indoles as non-thiol farnesyltransferase inhibitors” (Bioorg Med Chem Lett, 2005).

`N#Cc1ccc(Cn2cncc2Cn2cc(C#N)c(-c3cccc4ccccc34)c2)cc1`: the pIC50 was 9.24 in test [1] and 6.85 in test [2]. Also, the pEC50 in test [3] is 7.47.

`Cn1cncc1C(OCc1ccc2c(c1)c(-c1cccc(Cl)c1)cc(=O)n2C)c1ccc(C#N)cc1` (configuration not stated): in test [1], the pIC50 is 7.10.

`NC(=O)N1CCC(CC(=O)N2CCC([C@H]3c4ncc(Br)cc4CCc4cc(Cl)cc(Br)c43)CC2)CC1` [LONAFARNIB] yielded an inhibition in test [4] of 100%. Further, the negative logarithm of the IC50 (pIC50) in test [2] is less than 5.00.

`Cn1c(=O)cc(-c2cccc(Cl)c2)c2cc(C(O)c3cncn3Cc3ccc(C#N)cc3)ccc21` (configuration not stated) showed an inhibition in test [4] of 32%. The pIC50 in test [1] is 8.33; in test [2] it was 4.77.

Turning to `N#Cc1cn(Cc2cncn2Cc2ccc3c(c2)OCO3)cc1-c1cccc2ccccc12`, the inhibition in test [5] was 68%. For the same molecule, the pIC50 in test [1] is 8.21; in test [2], 6.28.

For `N#Cc1ccc(Cn2cncc2Cn2ccc3c(C#N)c(-c4cccc5ccccc45)ccc32)cc1`, the pIC50 is 9.82 in test [1] and 6.96 in test [2]. Moreover, the pEC50 in test [3] is 8.68.

`Cn1c(=O)cc(-c2cccc(Cl)c2)c2cc(Cn3cncc3Cn3ccc(=O)cc3)ccc21`: the pIC50 in test [1] was less than 6.00.

Consider `Cn1c(=O)cc(-c2cccc(Cl)c2)c2cc(C(=O)c3cncn3Cc3ccc(C#N)cc3)ccc21`, for which the inhibition in test [4] stood at 30%. Further, the pIC50 in test [1] is 7.54; in test [2], greater than 5.00.

`Cn1c(=O)cc(-c2cccc(Cl)c2)c2cc(Cn3cncc3Cc3ccc(C#N)cc3)ccc21`: the inhibition in test [6] and in test [4] was 57% each time. The pIC50 in test [7] was 4.77; in test [1], 8.14; in test [2], less than 5.00; in test [8], 8.33.

For `Cn1c(=O)cc(-c2cccc(Cl)c2)c2cc(Cn3cncc3COCc3ccc(C#N)cc3)ccc21`, the pIC50 in test [1] was less than 6.00.

`Cn1c(=O)cc(-c2cccc(Cl)c2)c2cc(Cn3cncc3Cn3ccc(C#N)c3)ccc21` showed a pIC50 in test [1] of 6.25.

In test [4], `Cn1c(=O)cc(-c2cccc(Cl)c2)c2cc(Cn3cncc3Cc3ccc(C#N)cc3)cnc21` returned an inhibition of 39%. Further, the pIC50 was 8.00 in test [1] and 5.40 in test [2].

In test [4], `Cn1c(=O)cc(-c2cccc(Cl)c2)c2cc(C(N)c3cncn3Cc3ccc(C#N)cc3)ccc21` (configuration not stated) showed an inhibition of 42%. Also, the pIC50 in test [1] is 8.42; in test [2] it was 4.66.

Consider `N#Cc1ccc(Cn2cncc2Cn2ccc3cc(-c4cccc5ccccc45)ccc32)cc1`, for which the pIC50 is 9.03 in test [1] and 6.57 in test [2]. This molecule also had a negative logarithm of the EC50 (pEC50) in test [3] of 8.24.

In test [1], `Cn1c(=O)cc(-c2cccc(Cl)c2)c2cc(Cn3cncc3COc3ccc(C#N)cc3)ccc21` had a negative logarithm of the IC50 (pIC50) of less than 6.00.

`Cn1c(=O)cc(-c2cccc(Cl)c2)c2cc(COCc3cncn3Cc3ccc(C#N)cc3)ccc21`: the pIC50 in test [1] was 7.05.

Consider `CC(=O)OC(c1ccc(C#N)cc1)c1cncn1Cc1ccc2c(c1)c(-c1cccc(Cl)c1)cc(=O)n2C` (configuration not stated), for which the pIC50 in test [1] and in test [2] was less than 6.00 throughout.

Consider `Cn1c(=O)cc(-c2cccc(Cl)c2)c2cc(Cn3cncc3Cn3ccc(C(=O)N4CCOCC4)c3)ccc21`, for which the pIC50 in test [1] was less than 6.00.

Regarding `Cn1c(=O)cc(-c2cccc(Cl)c2)c2cc(Cn3cncc3C(O)c3ccc(C#N)cc3)ccc21` (configuration not stated), the negative logarithm of the IC50 (pIC50) in test [1] was 7.36; in test [2], less than 5.00.

As for `Cn1c(=O)cc(-c2cccc(Cl)c2)c2cc(C(NC=O)c3cncn3Cc3ccc(C#N)cc3)ccc21` (configuration not stated), the inhibition in test [4] is 28%. In addition, the negative logarithm of the IC50 (pIC50) in test [1] was 8.68; in test [2], less than 5.00.

In test [4], `Cn1cncc1[C@@](N)(c1ccc(Cl)cc1)c1ccc2c(c1)c(-c1cccc(Cl)c1)cc(=O)n2C` gave an inhibition of 1.6%.

The term pIC50 denotes −log10 of the IC50, conventionally taken in molar units. Read a low pIC50 as a large IC50. What is called pEC50 is the EC50 on a negative log10 scale, so that one unit is a factor of ten. As a reminder, the inhibition is the percentage by which the read-out fell short of the control. A low value points to a response near the control.
